# Test results from patent US20240091227A1, “Use Of 2-Phenyl-6-(1H-Imidazol-1-YL) Quinazoline For Treating Neurodegenerative Diseases, Preferably Alzheimer's Disease” (ROTTAPHARM BIOTECH S.R.L., priority 2019, published 2024).
# Test system: PKCε
# Assay: PKCε translocation to the plasma membrane in cultured dorsal root ganglia neurons
# Format: cell-based, rat
# Details: idazoxan pre-applied 10 minutes at 10 and 100 μM, toward 1 μM CR4056
# Method: FIG. 1 reports the time-course (A) and washout (B) of CR4056 effect on PKCF translocation induced by bradykinin (BK 1 μM). In Panel A, open symbols represent the percentage of neurons positive for PKCF translocation following BK stimulation in absence of the drug. Filled symbols represent neurons pre-incubated with CR4056 ([…]) for different times before the stimulation for 30 seconds with BK+CR4056. The first filled symbol indicates the effect of CR4056 co-incubated for 30 seconds with BK, the second filled symbol indicates 10 seconds of pre-incubation of CR4056, and the last indicates 24 hours of pre-incubation of CR4056. […] In Panel B, BK-induced PKCF translocation was evaluated before (open symbol) and after pre-incubation of CR4056 ([…]) at different time intervals (from 10 minutes to 8 hours) (filled symbols). The first datapoint was obtained at the end of the 10 minute pre-incubation, when CR4056 was still present. The subsequent datapoints were obtained after extensive rinsing to ensure complete removal of the drug from extracellular solution (n=3).
# Rat dorsal root ganglia (DRGs) were obtained from freshly isolated spines after carefully removing nerve trunks and connective tissue. Larger ganglia, chopped into 2-4 smaller pieces were then incubated for 1 hour at 37° C. in 0.125% collagenase (Worthington, Freehold, NJ) dissolved in Dulbecco's modified Eagle's medium (DMEM) containing 10% fetal bovine serum (FBS) plus 1% penicillin/streptomycin and 1% L-glutamine (Euroclone, Milan, Italy). After enzymatic digestion, ganglia were mechanically dissociated and neurons plated at a density such that neurons would cover about 30% of coverslip surface in a single layer, in petri dishes containing wells with a glass bottom coverslip (pre-coated with 10 μg/mL poly-L-lysine and 20 µg/ml laminin, Sigma-Aldrich, Milan, Italy). Cells were incubated for 2-3 days in DMEM as described above, plus 1.5 μg/ml cytosine 1-d-arabinofuranoside (ARA-C, Sigma-Aldrich) to slow down proliferation of non neuronal cells, and 100 ng/ml nerve growth factor (NGF, Sigma-Aldrich) to increase cell health and the and the expression of receptors which are linked to PKCF translocation upon stimulation. Activation of membrane receptors coupled to phospholipase C pathway leads to PKCF translocation from cytoplasm to the plasma membrane. In order to study PKCε behaviour a well established technique was employed (Vellani V, Neuroscience, 2006). […] CR4056 was pre-applied in the culture medium for 10 min or co-applied with the stimulus. After fixation, cells were permeabilized with 0.2% Triton X-100 (Sigma-Aldrich, Milan, Italy) and exposed overnight to a rabbit polyclonal antibody highly specific for PKCF. After extensive rinsing, PKCF was visualized with a secondary antibody (1:200 dilution Alexa Fluor 488 goat anti-rabbit, Thermo Fisher Scientific, Monza, Italy) applied for 2-4 hours at room temperature in the dark Cells showing PKCF translocation were detected with a confocal microscope (Leica SP2, Leica, Switzerland) by measuring fluorescence intensity along a line drawn through the cytoplasm and the membrane, thus avoiding the nucleus. Neurons in which fluorescence intensity at the plasma membrane throughout the cell was 1.5-fold or higher than the mean cytoplasmic intensity were considered positive.
smiles,measurement,value
"c1ccc2c(c1)OCC(C1=NCCN1)O2 (stereo not shown) [Idazoxan, idazoxan, reference compound]",Effect of idazoxan on the block of PKCF translocation by CR4056,completely ineffective
